Results on six compounds are retold here after paper PMC7555825, “New Insights of the Zn(II)-Induced P2 × 4R Positive Allosteric Modulation: Role of Head Receptor Domain SS2/SS3, E160 and D170” (International Journal of Molecular Sciences, 2020).

Data set [1] deals with T1, rP2 × 4R (Rattus norvegicus, UniProt P51577).
T1 construct: host or cells: Xenopus laevis oocytes (intranuclear plasmid injection, pcDNA3)
T1 sequence (P51577 1-388): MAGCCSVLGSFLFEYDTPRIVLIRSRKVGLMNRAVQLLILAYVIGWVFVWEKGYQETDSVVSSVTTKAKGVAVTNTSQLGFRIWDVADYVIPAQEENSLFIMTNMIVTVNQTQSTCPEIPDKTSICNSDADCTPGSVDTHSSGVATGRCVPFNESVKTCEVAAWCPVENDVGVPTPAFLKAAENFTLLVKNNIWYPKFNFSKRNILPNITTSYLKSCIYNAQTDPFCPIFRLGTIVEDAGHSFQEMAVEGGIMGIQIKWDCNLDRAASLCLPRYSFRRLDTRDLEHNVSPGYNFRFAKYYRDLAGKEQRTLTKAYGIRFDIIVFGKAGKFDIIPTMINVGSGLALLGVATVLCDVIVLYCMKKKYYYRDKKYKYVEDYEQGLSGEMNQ
Further details: method as in PMID 17962187. To be noted: treatment in the absence of Zn(II); cited from earlier work.

The target in data set [2] is T1, rP2 × 4R. In words: Short protocol: Zn(II) potentiation of single 10 µM ATP-evoked currents before/after thiol reagent treatment, rP2 × 4R oocytes. Type of data set: cell-based. Particulars: for effect of alkylator plus Zn(II) treatment on Zn(II)-induced potentiation: 300 µM alkylator + 10 µM Zn(II). As for the experimental part:
(§1) A simpler and shorter assay to test the Zn(II) potentiation was developed to better assess the loss of Zn(II) modulation elicited by the joint co-treatment of NEM plus Zn(II). […] Ten minutes after alkylator washout, cells were treated with Zn(II) plus NEM or iodoacetamide (IA) for 5 min followed by 20 min of alkylator washout. Next, the P2 × R was tested again to examine the magnitude of the Zn(II) potentiation.
(§2) After 10 min of washout we applied 300 µM NEM, 300 µM IA, 300 µM IAc, or 300 µM DTNB for 5 min in absence or presence of Zn(II) (10 µM for rP2 × 4R and 30 µM for rP2 × 2R).
(§3) After 10 min of washout we applied 300 µM NEM + 10 µM DTT.

For data set [3], the target named is T1, rP2 × 4R. The description is as above. Type of data set: cell-based. To be noted: 10, 30, 100 µM DTT.
A further data set concerns oocytes. Put plainly: Toxicity of DTT to oocytes (loss of holding potential). To be noted: DTT concentrations larger than 100 µM; holding potential lost. Type of data set: cell-based, Xenopus laevis. As for the experimental part: Larger DTT concentrations were toxic since the oocyte holding potential was lost, a likely acute toxicity indication.
as §3

The target in a further data set is T2, rP2 × 2R (Rattus norvegicus, UniProt P49653).
T2 sequence (P49653 1-472): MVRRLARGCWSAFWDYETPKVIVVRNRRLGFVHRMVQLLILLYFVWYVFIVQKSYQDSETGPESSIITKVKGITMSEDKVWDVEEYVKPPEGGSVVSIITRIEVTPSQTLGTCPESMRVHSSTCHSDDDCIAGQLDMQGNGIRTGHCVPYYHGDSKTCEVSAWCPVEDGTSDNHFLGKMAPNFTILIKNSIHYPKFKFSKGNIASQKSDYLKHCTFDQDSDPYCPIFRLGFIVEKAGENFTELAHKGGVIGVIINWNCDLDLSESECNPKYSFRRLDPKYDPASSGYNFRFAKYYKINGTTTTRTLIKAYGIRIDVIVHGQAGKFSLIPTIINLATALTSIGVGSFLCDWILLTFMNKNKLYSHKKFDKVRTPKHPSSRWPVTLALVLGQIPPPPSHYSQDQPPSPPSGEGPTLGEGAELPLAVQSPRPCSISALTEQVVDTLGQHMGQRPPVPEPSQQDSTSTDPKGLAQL
Put plainly: Short protocol: Zn(II) potentiation of single 10 µM ATP-evoked currents before/after thiol reagent treatment, rP2 × 2R oocytes. Also noted: expressed in transfected cells; host or cells: Xenopus laevis oocytes (intranuclear plasmid injection). Type of data set: cell-based. To be noted: for effect of alkylator plus Zn(II) treatment on Zn(II) potentiation/modulation: 300 µM alkylator + 30 µM Zn(II), 5 min, 20 min washout. The protocol: as §1, §2

Data set [4] concerns the target T1, rP2 × 4R. In words: ATP concentration–response curves, two-electrode voltage clamp in oocytes expressing wild type rP2 × 4R. Type of data set: cell-based. Particulars: NEM plus Zn(II) treatment; irreversible alkylation.

Consider `C[N+](C)(C)CCSS(C)(=O)=O` [MTSET, 2-(trimethylammonium)ethyl methanethiosulfonate], for which, on rP2 × 4R [1], the “effect of MTSET treatment on Zn(II) potentiation” value was “diminish the Zn(II) potentiation”.

Take `O=C(O)c1cc(SSc2ccc([N+](=O)[O-])c(C(=O)O)c2)ccc1[N+](=O)[O-]` [DTNB, 5,5’-dithiobis-(2-nitrobenzoic) acid]: the “effect of alkylator plus Zn(II) treatment on Zn(II)-induced potentiation” value (from here on “effect … on Zn(II)-induced potentiation”) on rP2 × 4R [2] (5 min, 20 min washout) is “neither of the reagents blocked”.

Regarding `O[C@@H](CS)[C@@H](O)CS` (racemic) [DTT, dithiothreitol], at rP2 × 4R [2] (after combined 10 µM DTT plus 300 µM NEM treatment, 5 min, 20 min washout), the “fold enhancement of ATP-evoked currents after treatment” value (“fold enhancement” below) amounted to 3.9 ± 1.2 fold. The “potentiation of 10 µM ATP-evoked currents by co-applied DTT” value on rP2 × 4R [3] is listed as “neither 10, 30, nor 100 µM DTT potentiated the ATP-evoked currents”. In addition, in the data set on oocytes, the toxicity to oocytes entry is given as “toxic”.

In the case of `CCN1C(=O)C=CC1=O` [NEM, N-ethylmaleimide], the “fold increase of ATP-evoked currents after treatment” value on rP2 × 4R [2] (10 µM ATP, after 300 µM NEM plus 10 µM Zn(II) treatment, vs first ATP current) was found to be 4.0 ± 1.0 fold. The “effect … on Zn(II)-induced potentiation” value at rP2 × 4R [2] (5 min, 20 min washout) is “abolished the Zn(II)-induced potentiation”. In addition, the “effect of alkylator plus Zn(II) treatment on Zn(II) potentiation/modulation” value at rP2 × 2R is “Did Not Annul”. For the same compound, the “fold enhancement” value at rP2 × 2R (after NEM + 30 µM Zn(II) treatment) is on record as 3.3 ± 0.5 fold. In addition, the “time the lack of metal potentiation endured after NEM treatment” value on rP2 × 4R [4] is “at least 1 h”.

As to `O=C(O)CI` [IAc, Iodoacetate], the “effect … on Zn(II)-induced potentiation” value at rP2 × 4R [2] (5 min, 20 min washout) was “neither of the reagents blocked”.

Take `NC(=O)CI` [IA, Iodoacetamide]: on rP2 × 4R [2] (300 µM IA + 10 µM Zn(II), 5 min, 20 min washout), the “ATP-evoked currents after IA plus Zn(II) treatment” value is given as “not increased”. The “effect … on Zn(II)-induced potentiation” value on rP2 × 4R [2] (5 min, 20 min washout) is “abolished the Zn(II)-induced potentiation”. In addition, the “effect of alkylator plus Zn(II) treatment on Zn(II) potentiation/modulation” value at rP2 × 2R is “annulled the Zn(II) potentiation”. Further, the “fold enhancement” value at rP2 × 2R (after IA + 30 µM Zn(II) treatment) is 8.6 ± 3.3 fold.
